# Patent publication US20260022142A1, “MACROCYCLIC IMMUNOMODULATORS” (Bristol-Myers Squibb Company, priority 2022, published 2026)
# Numbered stars: 1 amine (or outer) side, 2 acyl side, 3 side chain; on linkers, the order of the positions; unused ones are H or OH. Bridge positions count the residues as written; N and C are the ends. Square brackets hold non-standard residues; d marks the D form. Peptide text beside a SMILES is read from it. * marks the point of attachment. ξ: configuration not given here. Phe(4-COOH) = N[C@@H](Cc1ccc(C(=O)O)cc1)C(=O)O; Bip = N[C@@H](Cc1ccc(-c2ccccc2)cc1)C(=O)O; NH(CH2)14COOH = O=C(O)CCCCCCCCCCCCCCN*; Phe(3-Me) = Cc1cccc(C[C@H](N)C(=O)O)c1; γGlu = O=C(O)[C@H](CCC(=O)[*:2])N[*:1]; Val(3-OH) = CC(C)(O)[C@H](N)C(=O)O; 4Pal = N[C@@H](Cc1ccncc1)C(=O)O; Cha = N[C@@H](CC1CCCCC1)C(=O)O; Cit = NC(=O)NCCC[C@H](N)C(=O)O; Thr(3ξ) = CC(O)[C@H](N)C(=O)O; Carboxymethyl = O=C(O)C*; Orn = NCCC[C@H](N)C(=O)O; Aun = NCCCCCCCCCCC(=O)O; Dab = NCC[C@H](N)C(=O)O; Dap = NC[C@H](N)C(=O)O; AEEA = NCCOCCOCC(=O)O
# Molecular target: T1, PD-1/PD-L1 interaction (PE-labeled human PD-L1-Ig binding to Jurkat cell line over-expressing human PD-1) (Homo sapiens, UniProt Q15116)
# T1 construct: expressed in transfected cells; host or cells: Jurkat
# T1 sequence (Q15116 25-288): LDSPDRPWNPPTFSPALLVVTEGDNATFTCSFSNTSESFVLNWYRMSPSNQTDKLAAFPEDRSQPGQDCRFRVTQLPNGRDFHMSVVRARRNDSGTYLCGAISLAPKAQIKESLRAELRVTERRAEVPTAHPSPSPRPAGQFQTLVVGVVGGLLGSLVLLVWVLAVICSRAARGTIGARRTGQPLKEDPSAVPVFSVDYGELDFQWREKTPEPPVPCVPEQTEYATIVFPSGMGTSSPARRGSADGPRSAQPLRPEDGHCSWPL
# Experiment: Jurkat-PD-1 Cell Binding High-Content Screening Assay (CBA)
# Type: cell-based
# Details: Jurkat cell line over-expressing human PD-1; PE-labeled PD-L1-Ig 20 nM final; read-out: Jurkat hPD1-PDL1 IC50
# Summary of the method: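 Jurkat cells over-expressing human PD-1 (8×10^3 per well, DMEM/10% FCS) preincubated with compound 2 h at 37° C, then PE-labeled human PD-L1-Ig (20 nM final) added for 1 h. Cells fixed with paraformaldehyde, Hoechst-stained, and bound fluorescence quantified by high-content imaging.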
row,IC50 [nM],Compound
1,11.7,Cc1cccc(C[C@@H]2NC(=O)[C@H](CC(=O)O)NC(=O)[C@H](Cc3ccc(OCC(=O)O)cc3)NC(=O)[C@H](C(C)O)NC(=O)CSC[C@@H](C(=O)N[C@@H](CCN)C(=O)NCCCCCCCCCCC(=O)O)NC(=O)[C@H](CO)NC(=O)[C@H](C(C)(C)O)NC(=O)[C@H](CC3CCCCC3)NC(=O)[C@H](Cc3cnc[nH]3)NC(=O)[C@@H](CC(C)C)NC(=O)[C@H](CCCN)NC(=O)[C@H](Cc3ccc(OCC(=O)O)cc3)NC(=O)[C@H](Cc3ccc(-c4ccccc4)cc3)NC(=O)[C@H](Cc3ccc(OCC(=O)O)cc3)NC2=O)c1 (stereo partly drawn) [Compound 3720] ({CH2CO}-[Thr(3ξ)]Y(Carboxymethyl)D[Phe(3-Me)]Y(Carboxymethyl)[Bip]Y(Carboxymethyl)[Orn][dL]H[Cha][Val(3-OH)]SC[Dab][Aun]-OH; thioether N-14)
2,7.4,CC(C)C[C@H]1NC(=O)[C@H](CCCN)NC(=O)[C@H](C(C)C)NC(=O)[C@H](Cc2ccc(-c3ccccc3)cc2)NC(=O)[C@H](C(C)C)NC(=O)[C@H](Cc2c[nH]c3ccccc23)NC(=O)[C@H](CC(=O)O)NC(=O)[C@H](Cc2ccc(OCC(=O)O)cc2)NC(=O)[C@H](Cc2ccc(OCC(=O)O)cc2)NC(=O)CSC[C@@H](C(=O)NCCOCCOCC(=O)N[C@@H](CCN)C(=O)NCCCCCCCCCCC(=O)O)NC(=O)[C@H](CCCN)NC(=O)[C@H](C(C)C)NC(=O)[C@H](CC2CCCCC2)NC(=O)[C@H](CCN)NC1=O [Compound 2545] ({CH2CO}-Y(Carboxymethyl)Y(Carboxymethyl)DWV[Bip]V[Orn][dL][Dab][Cha]V[Orn]C[AEEA][Dab][Aun]-OH; thioether N-14)
3,14.1,Cc1cccc(C[C@@H]2NC(=O)[C@H](CC(=O)O)NC(=O)[C@H](Cc3ccc(OCC(=O)O)cc3)NC(=O)[C@H](CN)NC(=O)CSC[C@@H](C(=O)NCCOCCOCC(=O)N[C@@H](CCN)C(=O)NCCCCCCCCCCC(=O)O)NC(=O)[C@H](CN)NC(=O)[C@H](C(C)C)NC(=O)[C@H](CC3CCCCC3)NC(=O)[C@H](CCN)NC(=O)[C@@H](CC(C)C)NC(=O)[C@H](CCCN)NC(=O)[C@H](CCCNC(N)=O)NC(=O)[C@H](Cc3ccc(-c4ccccc4)cc3)NC(=O)[C@H](C(C)C)NC2=O)c1 [Compound 2627] ({CH2CO}-[Dap]Y(Carboxymethyl)D[Phe(3-Me)]V[Bip][Cit][Orn][dL][Dab][Cha]V[Dap]C[AEEA][Dab][Aun]-OH; thioether N-14)
4,13.4,CC(C)C[C@H]1NC(=O)[C@H](CCCN)NC(=O)[C@H](C(C)C)NC(=O)[C@H](Cc2ccc(-c3ccccc3)cc2)NC(=O)[C@H](C(C)C)NC(=O)[C@H](Cc2c[nH]c3ccccc23)NC(=O)[C@H](CC(=O)O)NC(=O)[C@H](Cc2ccc(OCC(=O)O)cc2)NC(=O)[C@H](C(C)O)NC(=O)CSC[C@@H](C(=O)N[C@@H](CCN)C(=O)NCCCCCCCCCCC(=O)O)NC(=O)[C@H](CCN)NC(=O)[C@H](C(C)O)NC(=O)[C@H](CC2CCCCC2)NC(=O)[C@H](CCN)NC1=O (stereo partly drawn) [Compound 3674] ({CH2CO}-[Thr(3ξ)]Y(Carboxymethyl)DWV[Bip]V[Orn][dL][Dab][Cha][Thr(3ξ)][Dab]C[Dab][Aun]-OH; thioether N-14)
5,629,CC(C)C[C@H]1NC(=O)[C@H](CCCN)NC(=O)[C@H](Cc2ccc(O)cc2)NC(=O)[C@H](Cc2ccc(-c3ccccc3)cc2)NC(=O)[C@H](Cc2ccc(O)cc2)NC(=O)[C@H](Cc2c[nH]c3ccccc23)NC(=O)[C@H](CC(=O)O)NC(=O)[C@H](Cc2ccc(OCC(=O)O)cc2)NC(=O)[C@H](C(C)O)NC(=O)CSC[C@@H](C(=O)N[C@@H](CCN)C(=O)NCCCCCCCCCCC(=O)O)NC(=O)[C@H](CN)NC(=O)[C@H](C(C)O)NC(=O)[C@H](CC2CCCCC2)NC(=O)[C@H](Cc2cnc[nH]2)NC1=O (stereo partly drawn) [Compound 3695] ({CH2CO}-[Thr(3ξ)]Y(Carboxymethyl)DWY[Bip]Y[Orn][dL]H[Cha][Thr(3ξ)][Dap]C[Dab][Aun]-OH; thioether N-14)
6,57.3,CC(C)C[C@@H]1NC(=O)[C@H](Cc2c[nH]c3ccccc23)NC(=O)[C@H](CC(=O)O)NC(=O)[C@H](Cc2ccc(C(=O)O)cc2)NC(=O)[C@H](Cc2ccncc2)NC(=O)CSC[C@@H](C(=O)N[C@@H](CCN)C(=O)NCCOCCOCC(=O)N[C@@H](CCCN)C(=O)NCCCCCCCCCCC(=O)O)NC(=O)[C@H](CO)NC(=O)[C@H](C(C)C)NC(=O)[C@H](CC2CCCCC2)NC(=O)[C@H](CCN)NC(=O)[C@@H](CC(C)C)NC(=O)[C@H](CCCN)NC(=O)[C@H](C(C)C)NC(=O)[C@H](Cc2ccc(-c3ccccc3)cc2)NC1=O [Compound 3195] ({CH2CO}-[4Pal][Phe(4-COOH)]DWL[Bip]V[Orn][dL][Dab][Cha]VSC[Dab][AEEA][Orn][Aun]-OH; thioether N-14)
7,15.8,CC(C)C[C@H]1NC(=O)[C@H](CCCN)NC(=O)[C@H](C(C)C)NC(=O)[C@H](Cc2ccc(-c3ccccc3)cc2)NC(=O)[C@H](C(C)C)NC(=O)[C@H](Cc2c[nH]c3ccccc23)NC(=O)[C@H](CC(=O)O)NC(=O)[C@H](Cc2ccc(OCC(=O)O)cc2)NC(=O)[C@H](CN)NC(=O)CSC[C@@H](C(=O)N[C@@H](CCN)C(=O)NCCOCCOCC(=O)N[C@@H](CCC(=O)NCCCCCCCCCCC(=O)O)C(=O)O)NC(=O)[C@H](CCCN)NC(=O)[C@H](C(C)O)NC(=O)[C@H](CC2CCCCC2)NC(=O)[C@H](CCN)NC1=O (stereo partly drawn) [Compound 3680] ({CH2CO}-[Dap]Y(Carboxymethyl)DWV[Bip]V[Orn][dL][Dab][Cha][Thr(3ξ)][Orn]C[Dab][AEEA][γGlu][Aun]-OH; thioether N-14)
8,80.5,CC(C)C[C@H]1NC(=O)[C@H](CCCN)NC(=O)[C@H](CCC(=O)O)NC(=O)[C@H](Cc2ccc(-c3ccccc3)cc2)NC(=O)[C@H](C(C)C)NC(=O)[C@H](Cc2c[nH]c3ccccc23)NC(=O)[C@H](CC(=O)O)NC(=O)[C@H](Cc2ccncc2)NC(=O)[C@H](C(C)O)NC(=O)CSC[C@@H](C(=O)N[C@@H](C)C(=O)NCCOCCOCC(=O)N[C@@H](CCCCN)C(=O)NCCCCCCCCCCCCCCC(=O)O)NC(=O)[C@H](CO)NC(=O)[C@H](C(C)C)NC(=O)[C@H](CC2CCCCC2)NC(=O)[C@H](CCN)NC1=O (stereo partly drawn) [Compound 3025] ({CH2CO}-[Thr(3ξ)][4Pal]DWV[Bip]E[Orn][dL][Dab][Cha]VSCA[AEEA]K-{NH(CH2)14COOH}; thioether N-14)
9,23.4,Cc1cccc(C[C@@H]2NC(=O)[C@H](CC(=O)O)NC(=O)[C@H](Cc3ccc(OCC(=O)O)cc3)NC(=O)[C@H](CN)NC(=O)CSC[C@@H](C(=O)N[C@@H](CCN)C(=O)NCCCCCCCCCCC(=O)O)NC(=O)[C@H]([C@@H](C)O)NC(=O)[C@H](C(C)(C)O)NC(=O)[C@H](CC3CCCCC3)NC(=O)[C@H](CCN)NC(=O)[C@@H](CC(C)C)NC(=O)[C@H](CCCN)NC(=O)[C@H](CCCNC(N)=O)NC(=O)[C@H](Cc3ccc(-c4ccccc4)cc3)NC(=O)[C@H](C(C)C)NC2=O)c1 [Compound 2153] ({CH2CO}-[Dap]Y(Carboxymethyl)D[Phe(3-Me)]V[Bip][Cit][Orn][dL][Dab][Cha][Val(3-OH)]TC[Dab][Aun]-OH; thioether N-14)
